Data taken from patent US9896482B2, “Beta hairpin peptides having antiviral properties against Dengue virus” (CENTRO DE INGENIERÍA GENÉTICA Y BIOTECNOLOGÍA, priority 2014, dated 2018).
Like-named read-outs stand apart in the source and are kept apart here. Where a SMILES comes first, the peptide text is derived from it. Bridges are numbered along the chain shown (N, C = ends). [ ]: non-standard residue; d: D form.

Assays:
[1] = molecular target: T1, sLRP1-CIV (Homo sapiens, UniProt Q07954); assay: Biacore (SPR) binding to immobilized sLRP1-CIV; conditions: for Kd: double site model, maximum RU vs. concentration; for Binding to sLRP1-CIV by SPR, in words: peptides at 20 μM
T1 construct: purchased R&D Systems, USA
Description: The interaction of the beta hairpin peptides with soluble fragments of the LRP1 receptor was studied by Surface Plasmon Resonance (SPR), using a Biacore X unit. In this technique, one of the interaction partners to be studied is immobilized on the surface of a chip, and the other interaction partner is dissolved in a solution that runs through the measurement cell on top of the interaction surface, under conditions of controlled flow. The association and dissociation of interacting partners is measured in resonance units (RU) and plotted, as a function of time, on charts known as ‘sensorgrams’. SPR, therefore, enables the experimenter to obtain detailed information about the interaction without having to label either interaction partner.
In this example, one channel of a CM5 chip (GE Healthcare, USA) was used to immobilize protein sLRP1-CIV on its surface at high density (see Table 6) and recombinant Human Serum Albumin (rHSA, Sigma-Aldrich, USA) was immobilized on the other channel.
Although it was decided to immobilize sLRP1-CIV at high density because these conditions make easier the detection of any potential interactions with compounds whose molecular weight is lower than that of average proteins (such as the peptides this experiment is intended to study), it must be stressed that in high-density surfaces, mass transfer limitations and the possibility of multivalent binding make difficult the accurate determination of kinetic constants. Therefore, and in order to characterize in greater detail the sLRP1-CIV binding surface, different RAP dilutions (0.6-20 μM) were loaded, and RU were registered under conditions of interaction equilibria (250 sec, see FIG. 13B). […] The data also indicate that immobilized sLRP1-CIV faithfully reproduces the previously reported characteristics of the LRP1-RAP interaction.
The binding of beta hairpin peptides to sLRP1-CIV was studied by loading 20 μM dilutions in running buffer of the different peptide variants onto the sLRP1-CIV chip characterized above. The high strength of the resulting signals is consistent with the binding of aggregated, rather than monomeric forms of the peptides. Therefore, the observed variations between different peptides may reflect either differences in the affinity of unitary peptide interactions or differences in aggregation numbers and/or geometries that lead to variations in the number of peptide units able to simultaneously engage immobilized sLRP1-CIV molecules in a multivalent manner. […] The difference between peptides HDIII3CL2 and HDIII3CL is that the former has an additional C-terminal lysine and has, therefore, a stronger cationic character, which may facilitate additional electrostatic interactions with the negatively charged LRP1 receptor.

[2] = molecular target: T1, sLRP1-CIV; conditions: other studies; read-out: Affinity of multi-point interaction with clusters II and IV of LRP1; cited from earlier work
[3] = system: DENV1 (NIBSC code West Pac 74); assay: Plaque reduction assay in Vero cells, DENV1; assay type: cell-based, Dengue virus; conditions: m.o.i. 0.001, read-out: Antiviral activity IC50 vs DENV1
Description: (§1) The cells were grown in 24 well plates until the monolayer reached approximately 90% confluence, after which they were washed twice with MEM medium without Fetal Bovine Serum (FBS). Then, peptide dilutions were added and the cell-peptide mixtures were incubated typically for 1 hour at 37° C., followed by the addition of a DENV serotype 2 preparation (NIBSC code S16803) at a multiplicity of infection (m.o.i.) of 0.001. The cells were then incubated for 1 hour at 37° C., and once the period of incubation with the viral inoculum concluded, were washed again to remove unbound virions and incubated for 5 days at 37° C. in high density medium (MEM supplemented with non-essential amino acids, 1% FBS, 1% carboxymethylcellulose) in order to let viral plaques form. Afterwards, the cells were stained with 0.1% Naphtol Blue Black in 0.15 M sodium acetate. Two replicates per experimental point were used in each assay, and three independent determinations were performed for each sample.
(§2) Next, it was decided to compare the antiviral activity of peptides PHB4 and HDIII3CL against all four DENV serotypes, with the objective of comparing their respective IC50 values. […]

[4] = system: DENV3 (NIBSC code CH53489); assay: Plaque reduction assay in Vero cells, DENV3; assay type: cell-based, Dengue virus; conditions: m.o.i. 0.001, read-out: Antiviral activity IC50 vs DENV3
Description: as §1, §2

[5] = system: DENV 4 (NIBSC code TVP360); assay: Plaque reduction assay in Vero cells, DENV4; assay type: cell-based, Dengue virus; conditions: m.o.i. 0.001, read-out: Antiviral activity IC50 vs DENV4
Description: as §1, §2

[6] = system: DENV serotype 2 (NIBSC code S16803); assay: Plaque reduction assay in Vero cells, DENV2; assay type: cell-based, Dengue virus
Description: as §1
Next, it was decided to compare the antiviral activity of peptides PHB4 and HDIII3CL against all four DENV serotypes, with the objective of comparing their respective IC50 values. This comparison was performed with plaque reduction assays on Vero cells, adding the viral inoculum for each serotype (DENV1, NIBSC code West Pac 74, DENV2, NIBSC, code S16803; DENV3, NIBSC, code CH53489; DENV 4, NIBSC code TVP360) at a m.o.i. of 0.001.

[7] = Toxicity in Vero cells (MTT assay and manual cell counting); assay type: cell-based; conditions: ‡ non toxic at 1000 μM, read-out: Ctox50
Description: (§3) The toxicity of the beta hairpin peptides was assessed with the MTT (3-(4,5-dimethylthiazol-2-yl)-2,5-diphenyltetrazolium bromide, Invitrogen, USA) assay (Mosmann, T. (1983). J. Immunol. Methods 65, 55-63.), and by manual cell counting using a Neubauer chamber. Ninety-six well plates (Costar, USA) were seeded with 200 μL/well of a suspension containing Vero cells at 1×10^5 cells/mL and incubated until the monolayers reached approximately 90% confluence, typically for 18-24 h. After washing the cells twice with DMEM (Dulbecco's Modified Eagle Medium) medium, 50 μL/well were added of the peptide or additive dilutions to be evaluated (Triton ^X-100™ dissolved in PBS was used as positive toxicity control) and the plates were incubated at 37° C. under a 5% CO2 atmosphere for 2 or 24 h. Two different procedures were then employed to measure toxicity: • a) A 2 mg/mL solution of MTT in PBS was added (50 μL/well) and the plates were incubated for further 4 h at 37° C., 5% CO2. The medium was then removed, and 100 μL/well of DMSO were then added to solubilize formazan precipitates. Finally, the optical density (OD) of the supernatants at a wavelength of 540 nm was measured using a plate reader (Sensident Scan™, Merck, Germany). • b) The plates were washed with 200 μL/well of DMEM medium and then a trypsin solution (Sigma, USA) was added at 50 μL/well. After inactivating the trypsin by adding 150 μL/well of DMEM supplemented with 10% FBS, the cells were counted using the Trypan Blue (Gibco, USA) vital stain. The data were processed using the statistical software package Prism v5.3 (GraphPad, USA), using non-linear regression to fit them to a log10 (concentration) vs response curve.

[8] = system: Vero cells; assay: as above; assay type: cell-based; conditions: ‡ non toxic at 1000 μM
Description: as §3

[9] = DENV2, plaque reduction, NA = no detectable activity at concentrations lower than or equal to 100 μM, read-out: IC50, antiviral activity in Vero cells (50% inhibitory activity)

Molecule | IC50 [6, 9] [µM] | CC50 [7] [µM] | Binding to sLRP1-CIV by SPR, in words [1] | other results
RAP: Receptor-Associated Protein, a known LRP1 ligand |  |  |  | Kd ([1]; read-out: Kd of high-affinity interaction): 0.0042 µM; Kd ([1]; read-out: Kd of low-affinity interaction): 1.1 µM; Kd [2]: 0.006 to 0.018 µM
CC[C@H](C)[C@@H]1NC(=O)CNC(=O)[C@H]([C@@H](C)CC)NC(=O)[C@H](C(C)C)NC(=O)[C@H]([C@@H](C)CC)NC(=O)[C@H](CC(N)=O)NC(=O)[C@H](CO)NC(=O)[C@@H](N)CSSC[C@@H](C(=O)N[C@@H](CCCCN)C(=O)N[C@@H](CCCCN)C(N)=O)NC(=O)[C@H](Cc2c[nH]c3ccccc23)NC(=O)[C@H](CC(N)=O)NC(=O)[C@H]([C@@H](C)CC)NC(=O)[C@H](CCCCN)NC(=O)[C@H](CC(C)C)NC(=O)[C@H](C)NC(=O)[C@H](CCCCN)NC(=O)[C@H](CC(=O)O)NC(=O)CNC1=O [HDIII3CL, reference compound] (H-CSNIVIGIGDKALKINWCKK-NH2; disulfide 1-18) | 20 | 1000 |  | IC50 [3]: 15 µM; IC50 [4]: 20 µM; IC50 [5]: 50 µM; IC50 ([6]; Vero cells, m.o.i. 0.001, read-out: Antiviral activity IC50 vs DENV2): 20 µM
HDIII3CLC- |  |  | at most marginal interaction | 
CC[C@H](C)[C@@H]1NC(=O)[C@H](Cc2ccccc2)NC(=O)[C@H](Cc2c[nH]c3ccccc23)NC(=O)[C@H](CC(N)=O)NC(=O)[C@H](C(C)C)NC(=O)[C@H](CCCCN)NC(=O)[C@H](CCCCN)NC(=O)[C@H](CC(=O)O)NC(=O)[C@H]2CCCN2C(=O)[C@H](CCC(=O)O)NC(=O)[C@H]([C@@H](C)O)NC(=O)[C@H](Cc2c[nH]c3ccccc23)NC(=O)[C@H](CC(N)=O)NC(=O)[C@H](C(C)C)NC(=O)[C@H](CCC(=O)O)NC(=O)[C@H]([C@@H](C)CC)NC(=O)[C@@H](N)CSSC[C@@H](C(=O)N[C@@H](CCCCN)C(=O)N[C@@H](CCCCN)C(=O)N[C@@H](CCCCN)C(N)=O)NC1=O [PHB3] (H-CIEVNWTE[dP]DKKVNWFICKKK-NH2; disulfide 1-18) | 17 |  |  | Ctox50 [8]: >>1000^‡ μM
HDIII3CLW- |  |  | detectable specific binding | 
HDIII3CLK- |  |  | detectable specific binding | 
CC[C@H](C)[C@@H]1NC(=O)[C@H](Cc2ccccc2)NC(=O)[C@H](Cc2c[nH]c3ccccc23)NC(=O)[C@H](CC(N)=O)NC(=O)[C@H](Cc2ccc(O)cc2)NC(=O)[C@H](CCCCN)NC(=O)[C@H](CCCCN)NC(=O)CNC(=O)[C@H](CC(N)=O)NC(=O)[C@H]([C@@H](C)CC)NC(=O)[C@H]([C@@H](C)O)NC(=O)[C@H](C(C)C)NC(=O)[C@H](Cc2ccc(O)cc2)NC(=O)[C@H](C(C)C)NC(=O)[C@H](CCC(=O)O)NC(=O)[C@H]([C@@H](C)CC)NC(=O)[C@@H](N)CSSC[C@@H](C(=O)N[C@@H](CCCCN)C(=O)N[C@@H](CCCCN)C(=O)N[C@@H](CCCCN)C(N)=O)NC1=O [PHB9] (H-CIEVYVTINGKKYNWFICKKK-NH2; disulfide 1-18) | 7 | 216 |  | 
CC[C@H](C)[C@@H]1NC(=O)[C@H](Cc2ccccc2)NC(=O)[C@H](Cc2c[nH]c3ccccc23)NC(=O)[C@H](CC(N)=O)NC(=O)[C@H](Cc2ccc(O)cc2)NC(=O)[C@H](CCCCN)NC(=O)[C@H](CCCCN)NC(=O)CNC(=O)[C@H](CC(N)=O)NC(=O)[C@H]([C@@H](C)CC)NC(=O)[C@H]([C@@H](C)O)NC(=O)[C@H](C(C)C)NC(=O)[C@H](CC(N)=O)NC(=O)[C@H](C(C)C)NC(=O)[C@H](CCC(=O)O)NC(=O)[C@H]([C@@H](C)CC)NC(=O)[C@@H](N)CSSC[C@@H](C(=O)N[C@@H](CCCCN)C(=O)N[C@@H](CCCCN)C(=O)N[C@@H](CCCCN)C(N)=O)NC1=O [PHB8] (H-CIEVNVTINGKKYNWFICKKK-NH2; disulfide 1-18) | 15 | 300 |  | 
CC(C)[C@@H]1NC(=O)[C@H](CCCCN)NC(=O)[C@H](CCCCN)NC(=O)[C@H](CC(=O)O)NC(=O)[C@H]2CCCN2C(=O)[C@H](CCC(=O)O)NC(=O)[C@H]([C@@H](C)O)NC(=O)[C@H](Cc2c[nH]c3ccccc23)NC(=O)[C@H](CC(N)=O)NC(=O)[C@H](C(C)C)NC(=O)[C@@H](N)CSSC[C@@H](C(=O)N[C@@H](CCCCN)C(=O)N[C@@H](CCCCN)C(=O)N[C@@H](CCCCN)C(N)=O)NC(=O)[C@H](Cc2c[nH]c3ccccc23)NC(=O)[C@H](CC(N)=O)NC1=O [PHB1] (H-CVNWTE[dP]DKKVNWCKKK-NH2; disulfide 1-14) | 75 |  |  | Ctox50 [8]: >>1000^‡ μM
